Test results reported in ChEMBL document CHEMBL1201862, “PubChem BioAssay data set” (2004).
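96-well plates; 48 h exposure; 5 concentrations. Endpoints by linear interpolation between flanking doses. Not reached: highest tested concentration assigned. GI50 is the concentration that inhibits growth by half.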 Active and inactive are the calls of the source. Cut-off read from the data, not from the text of the source: active = GI50 up to about 1.1 µM and inactive = higher.

What was measured:
Assay in all cases: DTP human tumour cell line panel, 48 h
[1] = test system: SNB-19
[2] = test system: K562
[3] = test system: SK-OV-3
[4] = test system: NCI-H460
[5] = test system: UO-31
[6] = test system: HOP-92
[7] = test system: RPMI-8226
[8] = test system: HCC 2998
[9] = test system: MOLT-4
[10] = test system: SW-620
[11] = test system: OVCAR-8
[12] = test system: SF-539
[13] = test system: A498
[14] = test system: IGROV-1
[15] = test system: RXF 393
[16] = test system: SN12C
[17] = test system: HCT-116
[18] = test system: HL-60

Measured: GI50

COC1=CC(=O)C2[C@H]3Cc4ccccc4[C@H]3C2(C)C1=O (stereo partly specified)
inactive: [1] > 100 µM | [2] 52.1 µM | [3] > 100 µM | [4] > 100 µM | [5] 34.7 µM | [6] > 100 µM | [7] > 100 µM | [8] > 100 µM | [9] 91.6 µM | [10] > 100 µM | [11] > 100 µM | [12] > 100 µM | [13] > 100 µM | [14] > 100 µM | [15] > 100 µM

CN1C(=O)C(C)(C)NS1(=O)=O
inactive: [1] > 100 µM | [2] > 100 µM | [3] > 100 µM | [4] > 100 µM | [5] > 100 µM | [16] > 100 µM | [7] > 100 µM | [8] > 100 µM | [9] > 100 µM | [10] > 100 µM | [11] > 100 µM | [17] > 100 µM | [12] > 100 µM | [13] > 100 µM | [14] > 100 µM | [15] > 100 µM | [18] > 100 µM

Cc1cc2c(=O)cc(-c3ccc(Cl)c(Cl)c3)oc2c(C(=O)O)c1C
inactive: [1] > 100 µM | [2] > 100 µM | [3] > 100 µM | [4] > 100 µM | [5] > 100 µM | [16] > 100 µM | [7] > 100 µM | [9] > 100 µM | [10] > 100 µM | [11] > 100 µM | [17] > 100 µM | [12] > 100 µM | [14] > 100 µM | [15] 76.6 µM

COC(=O)[C@@H]1c2[nH]c3ccccc3c2C[C@@H]2c3ccccc3NC(=O)[C@@H]21
inactive: [1] > 80.2 µM | [2] > 100 µM | [3] 20.7 µM | [4] > 100 µM | [5] > 100 µM | [16] > 78.3 µM | [7] > 49.1 µM | [8] > 100 µM | [9] > 100 µM | [10] > 70.3 µM | [11] 21.3 µM | [17] 37.3 µM | [12] 43.7 µM | [13] > 100 µM | [14] > 100 µM | [15] 26.2 µM | [18] > 100 µM

C=Nc1ccc([N+](=O)[O-])cc1
inactive: [1] > 100 µM | [2] > 44.6 µM | [3] > 100 µM | [4] > 59.4 µM | [5] > 84.9 µM | [16] > 65.3 µM | [6] > 100 µM | [7] > 31.6 µM | [8] > 100 µM | [9] > 100 µM | [10] > 63.8 µM | [11] > 100 µM | [17] > 100 µM | [12] > 100 µM | [13] > 100 µM | [14] > 100 µM | [18] > 62.7 µM

NC(=O)COc1c(Br)cc(Br)cc1Br
inactive: [1] > 100 µM | [2] > 100 µM | [3] > 100 µM | [4] > 100 µM | [5] > 100 µM | [16] > 100 µM | [7] > 100 µM | [8] > 100 µM | [9] > 100 µM | [11] > 100 µM | [17] > 100 µM | [12] > 100 µM

Cc1cc(N(CCC#N)CCC#N)ccc1/C=C(\NC(=O)/C=C/c1ccccc1)NC(=O)Nc1ccc(Cl)cc1
inactive: [1] 48.4 µM | [2] 2.13 µM | [4] > 100 µM | [5] 74.1 µM | [16] > 100 µM | [6] 39.4 µM | [7] > 100 µM | [8] 58.7 µM | [9] > 100 µM | [10] > 100 µM | [11] 80 µM | [17] 23.6 µM | [12] 26 µM | [13] > 100 µM | [14] 38.8 µM | [15] 15.7 µM | [18] 37.5 µM

c1cncc(C2N3CCCCC3[C@@H]3c4[nH]c5ccccc5c4CCN23)c1 (stereo partly specified)
inactive: [1] > 100 µM | [2] > 100 µM | [3] > 100 µM | [4] > 100 µM | [5] > 100 µM | [16] > 100 µM | [6] > 100 µM | [7] > 100 µM | [9] > 100 µM | [10] > 100 µM | [11] > 100 µM | [17] > 100 µM | [12] > 100 µM | [13] > 100 µM | [14] > 100 µM | [15] 21.1 µM | [18] > 100 µM
